Measurements reported in PubChem BioAssay AID2060513 (Molecular Pharmacology Branch, DTP, NCI, 2025).

System: 299254-011-R-J1-PDC complex spheroids viability
Test: Anticancer human tumor 299254-011-R-J1-PDC patient-derived melanoma cell line growth inhibition [GQUAD]
Details: for IC50: curve of first compound; for viability, T/C: stronger effect = lower value
Outline: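 Viability of tumor cells grown as complex spheroids with endothelial and stromal cells, exposed to drug combinations. Top concentration at or near clinical Cmax (else 10 microM), diluted in half-log increments.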

[1] = second compound 0.0316 µM, first compound 0.000999 µM
[2] = second compound 0.0316 µM, first compound 0.00316 µM
[3] = second compound 0.0316 µM, first compound 0.00999 µM
[4] = second compound 0.0316 µM, first compound 0.0316 µM
[5] = second compound 0.0316 µM, first compound 0.0999 µM
[6] = second compound 0.0316 µM, first compound 0.316 µM
[7] = second compound 0.1 µM, first compound 0.000999 µM
[8] = second compound 0.1 µM, first compound 0.00316 µM
[9] = second compound 0.1 µM, first compound 0.00999 µM
[10] = second compound 0.1 µM, first compound 0.0316 µM
[11] = second compound 0.1 µM, first compound 0.0999 µM
[12] = second compound 0.1 µM, first compound 0.316 µM
[13] = second compound 0.316 µM, first compound 0.000999 µM
[14] = second compound 0.316 µM, first compound 0.00316 µM
[15] = second compound 0.316 µM, first compound 0.00999 µM
[16] = second compound 0.316 µM, first compound 0.0316 µM
[17] = second compound 0.316 µM, first compound 0.0999 µM
[18] = second compound 0.316 µM, first compound 0.316 µM
[19] = second compound 1 µM, first compound 0.000999 µM
[20] = second compound 1 µM, first compound 0.00316 µM
[21] = second compound 1 µM, first compound 0.00999 µM
[22] = second compound 1 µM, first compound 0.0316 µM
[23] = second compound 1 µM, first compound 0.0999 µM
[24] = second compound 1 µM, first compound 0.316 µM
[25] = second compound 3.16 µM, first compound 0.000999 µM
[26] = second compound 3.16 µM, first compound 0.00316 µM
[27] = second compound 3.16 µM, first compound 0.00999 µM
[28] = second compound 3.16 µM, first compound 0.0316 µM
[29] = second compound 3.16 µM, first compound 0.0999 µM
[30] = second compound 3.16 µM, first compound 0.316 µM
[31] = second compound 10 µM, first compound 0.000999 µM
[32] = second compound 10 µM, first compound 0.00316 µM
[33] = second compound 10 µM, first compound 0.00999 µM
[34] = second compound 10 µM, first compound 0.0316 µM
[35] = second compound 10 µM, first compound 0.0999 µM
[36] = second compound 10 µM, first compound 0.316 µM
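Further: spheroids exposed to the agents for seven days before readout.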
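Wherever viability, T/C is given: percent viability relative to DMSO vehicle control wells = 100%.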

SMILES: CCc1c2c(nc3ccc(O)cc13)-c1cc3c(c(=O)n1C2)COC(=O)[C@]3(O)CC + CN(C)c1ccc(Nc2c3ccc(NC(=O)CCN4CCCC4)cc3nc3cc(NC(=O)CCN4CCCC4)ccc23)cc1
- IC50 (second compound 0.0316 µM): > 316 nM
- IC50 (second compound 0.1 µM): > 316 nM
- IC50 (second compound 0.316 µM): > 316 nM
- IC50 (second compound 1 µM): > 316 nM
- IC50 (second compound 3.16 µM): > 316 nM
- IC50 (second compound 10 µM): > 316 nM
- viability, T/C [1]: 89.2%
- viability, T/C [2]: 110%
- viability, T/C [3]: 89.4%
- viability, T/C [4]: 94.9%
- viability, T/C [5]: 90.8%
- viability, T/C [6]: 98%
- viability, T/C [7]: 112%
- viability, T/C [8]: 98.5%
- viability, T/C [9]: 86.2%
- viability, T/C [10]: 80%
- viability, T/C [11]: 85.1%
- viability, T/C [12]: 72%
- viability, T/C [13]: 113%
- viability, T/C [14]: 113%
- viability, T/C [15]: 71.4%
- viability, T/C [16]: 89.1%
- viability, T/C [17]: 91.5%
- viability, T/C [18]: 78%
- viability, T/C [19]: 105%
- viability, T/C [20]: 115%
- viability, T/C [21]: 91.6%
- viability, T/C [22]: 86.5%
- viability, T/C [23]: 103%
- viability, T/C [24]: 86.4%
- viability, T/C [25]: 117%
- viability, T/C [26]: 112%
- viability, T/C [27]: 76.1%
- viability, T/C [28]: 85%
- viability, T/C [29]: 84.5%
- viability, T/C [30]: 94.5%
- viability, T/C [31]: 103%
- viability, T/C [32]: 129%
- viability, T/C [33]: 92%
- viability, T/C [34]: 83.7%
- viability, T/C [35]: 84.8%
- viability, T/C [36]: 100%

SMILES: CC[C@@]1(O)C(=O)OCc2c1cc1n(c2=O)Cc2cc3c(CN(C)C)c(O)ccc3nc2-1 + Cc1[nH]c2ccc(F)cc2c1-c1nc2c3cccnc3c3ncccc3c2[nH]1
- IC50 (second compound 0.0316 µM): > 316 nM
- IC50 (second compound 0.1 µM): > 316 nM
- IC50 (second compound 0.316 µM): > 316 nM
- IC50 (second compound 1 µM): > 316 nM
- IC50 (second compound 3.16 µM): > 316 nM
- IC50 (second compound 10 µM): > 316 nM
- viability, T/C [1]: 119%
- viability, T/C [2]: 92.6%
- viability, T/C [3]: 102%
- viability, T/C [4]: 85.8%
- viability, T/C [5]: 86%
- viability, T/C [6]: 79.4%
- viability, T/C [7]: 115%
- viability, T/C [8]: 105%
- viability, T/C [9]: 112%
- viability, T/C [10]: 78.2%
- viability, T/C [11]: 109%
- viability, T/C [12]: 74.8%
- viability, T/C [13]: 86.2%
- viability, T/C [14]: 88.3%
- viability, T/C [15]: 89.2%
- viability, T/C [16]: 106%
- viability, T/C [17]: 93.2%
- viability, T/C [18]: 77.7%
- viability, T/C [19]: 97%
- viability, T/C [20]: 103%
- viability, T/C [21]: 98.2%
- viability, T/C [22]: 101%
- viability, T/C [23]: 87.2%
- viability, T/C [24]: 86.9%
- viability, T/C [25]: 87.2%
- viability, T/C [26]: 116%
- viability, T/C [27]: 95%
- viability, T/C [28]: 111%
- viability, T/C [29]: 96.8%
- viability, T/C [30]: 101%
- viability, T/C [31]: 95%
- viability, T/C [32]: 97.8%
- viability, T/C [33]: 85.1%
- viability, T/C [34]: 85.3%
- viability, T/C [35]: 116%
- viability, T/C [36]: 79.8%

SMILES: O=c1[nH]cc(F)c(=O)[nH]1 + Cc1[nH]c2ccc(F)cc2c1-c1nc2c3cccnc3c3ncccc3c2[nH]1
- IC50 (second compound 0.0316 µM): > 10000 nM
- IC50 (second compound 0.1 µM): > 10000 nM
- IC50 (second compound 0.316 µM): > 10000 nM
- IC50 (second compound 1 µM): > 10000 nM
- IC50 (second compound 3.16 µM): > 10000 nM
- IC50 (second compound 10 µM): > 10000 nM
- viability, T/C [4]: 131%
- viability, T/C (second compound 0.0316 µM, first compound 0.1 µM): 114%
- viability, T/C [6]: 113%
- viability, T/C (second compound 0.0316 µM, first compound 1 µM): 121%
- viability, T/C (second compound 0.0316 µM, first compound 3.16 µM): 116%
- viability, T/C (second compound 0.0316 µM, first compound 10 µM): 125%
- viability, T/C [10]: 120%
- viability, T/C (second compound 0.1 µM, first compound 0.1 µM): 105%
- viability, T/C [12]: 110%
- viability, T/C (second compound 0.1 µM, first compound 1 µM): 123%
- viability, T/C (second compound 0.1 µM, first compound 3.16 µM): 98.3%
- viability, T/C (second compound 0.1 µM, first compound 10 µM): 123%
- viability, T/C [16]: 104%
- viability, T/C (second compound 0.316 µM, first compound 0.1 µM): 99.6%
- viability, T/C [18]: 119%
- viability, T/C (second compound 0.316 µM, first compound 1 µM): 100%
- viability, T/C (second compound 0.316 µM, first compound 3.16 µM): 97.5%
- viability, T/C (second compound 0.316 µM, first compound 10 µM): 97.8%
- viability, T/C [22]: 88.3%
- viability, T/C (second compound 1 µM, first compound 0.1 µM): 98.6%
- viability, T/C [24]: 106%
- viability, T/C (second compound 1 µM, first compound 1 µM): 108%
- viability, T/C (second compound 1 µM, first compound 3.16 µM): 116%
- viability, T/C (second compound 1 µM, first compound 10 µM): 106%
- viability, T/C [28]: 99.3%
- viability, T/C (second compound 3.16 µM, first compound 0.1 µM): 107%
- viability, T/C [30]: 96%
- viability, T/C (second compound 3.16 µM, first compound 1 µM): 113%
- viability, T/C (second compound 3.16 µM, first compound 3.16 µM): 90.4%
- viability, T/C (second compound 3.16 µM, first compound 10 µM): 107%
- viability, T/C [34]: 96.4%
- viability, T/C (second compound 10 µM, first compound 0.1 µM): 96.5%
- viability, T/C [36]: 92.1%
- viability, T/C (second compound 10 µM, first compound 1 µM): 102%
- viability, T/C (second compound 10 µM, first compound 3.16 µM): 98.9%
- viability, T/C (second compound 10 µM, first compound 10 µM): 88%
